# Laboratory results reported in patent US20110300147A9, “Inhibiting tumor cell invasion, metastasis and angiogenesis” (The Scripps Research institute, priority 2005, published 2011).
# Experiments:
# [1] = system: HUVEC; assay: endothelial cell invasion assay under hypoxia; format: cell-based, human; settings: hypoxic conditions
# Method: Cell invasion and mobility assays. Cell migration and invasion assays were performed as described with modifications (Albini et al., 1987). Stock solutions (15 mg/ml) of Matrigel basement membrane matrix (Becton Dickinson, Bedford, Mass.) were stored at −80° C. in 100 μl aliquots. After thawing on ice, the stock was diluted 1:50 with cold serum-free culture media and immediately applied to each membrane insert (8 μm pore) that formed the upper chambers of the multi-well invasion assay plate. The Matrigel was incubated overnight in a sterile laminar tissue culture hood. The membranes were hydrated for 2 hours with 250 μl of serum-free medium and excess medium was removed by aspiration. Medium containing 10% FBS was added to the bottom of each well. A suspension of 10^5 cells in 150 μl of serum-free medium was added to the upper chamber and incubated for 12 hours at 37° C., 5% CO2. At the indicated times, the membrane inserts were removed from the plate and the non-invading cells were removed from the upper surface. Membrane associated cells were stained with 0.09% crystal violet for 30 minutes and washed twice with PBS. The invading cells were counted microscopically. […]
# The effect of AEPI-1 on endothelial cell function was assessed in vitro in a matrigel endothelial cell tube formation assay. […]
# [2] = target: T1, legumain (Mus musculus, UniProt O89017); assay: legumain activity in tissues after systemic administration of AEPI-1; format: in vivo, mice
# T1 construct: from tissue
# T1 sequence (O89017 18-325): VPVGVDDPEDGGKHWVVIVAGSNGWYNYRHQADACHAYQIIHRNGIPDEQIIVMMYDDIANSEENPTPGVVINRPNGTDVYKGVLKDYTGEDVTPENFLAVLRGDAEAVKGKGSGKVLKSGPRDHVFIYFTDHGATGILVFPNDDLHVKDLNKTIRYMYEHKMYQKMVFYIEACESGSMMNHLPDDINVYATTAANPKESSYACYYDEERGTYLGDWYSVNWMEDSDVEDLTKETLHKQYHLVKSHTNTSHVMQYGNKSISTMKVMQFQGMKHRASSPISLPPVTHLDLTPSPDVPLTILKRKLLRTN
smiles,measurement,setting,value
"CCOC(=O)C1OC1C(=O)N(CC(N)=O)NC(=O)[C@H](C)NC(=O)[C@H](C)NC(=O)OCc1ccccc1 (stereo partly drawn) [AEPI-1, Cbz-Ala-Ala-AzaAsn-(S,S)-EPCOOEt]",hypoxia induced endothelial cell invasion,[1],inhibited
same,cell permeability,[2]; inferred from tumor vs kidney legumain activity,substantially impermeable to cells
same,legumain activity in 4T1 tumors,[2]; systemic administration,inhibited legumain activity in 4T1 tumors
same,legumain activity in kidney,[2]; systemic administration,does not affect
